Results: patent US20240425496A1, “AZETIDINYL PYRIMIDINES AND USES THEREOF” (Aerie Pharmaceuticals, Inc., priority 2021, published 2024)

Key:
TYK2 = TYK2 (Homo sapiens (Human), UniProt P29597); test: JAK kinase assay (KINASE-GLO luminescent), TYK2 enzyme; assay type: biochemical; details: TYK2 enzyme 10 nM, Abl peptide substrate
Procedure: (§1) All compounds were initially prepared as 10 mM stocks in anhydrous dimethylsulfoxide (DMSO). […] Test compounds were then serially diluted 1:5 in DMSO for an 11-point concentration response and further diluted in the assay buffer bringing all compound concentrations to a final range of 100 μM to 10 μM in 2.5% DMSO. […] The reaction was initiated by the addition of 10 μL of 4× stock solution ATP (2 μM). Reactions were thoroughly mixed manually, covered, and allowed to incubate at room temperature for 75 min. Protein kinase activity was quantitated using Promega's KINASE-GLO™ luminescent Kinase Assay Kit according to the manufacturer's directions. ATP concentrations remaining in Test wells following the termination of the enzymatic reaction were compared against control wells containing equivalent amounts of DMSO containing no inhibitor (CTRL). […] Percent of Control (POC) values were determined for each concentration of compound tested according to the equation: […]
(§2) IC50 values were calculated using the following 4-parameter logistic curve-fitting algorithm:
(§3) Compounds were prepared in the exact same manner as described in the ROCK Kinase Assay with the exception to the substrate and enzyme. […] All other steps and solutions remain identical to the ROCK Kinase Assay above.

JAK1 = JAK1 (Homo sapiens (Human), UniProt P23458); test: JAK kinase assay (KINASE-GLO luminescent), JAK1 enzyme; assay type: biochemical; details: JAK1 enzyme 10 nM, Abl peptide substrate
Procedure: as §1, §2, §3

Chain of TYK2 (P29597 whole entry, species assumed): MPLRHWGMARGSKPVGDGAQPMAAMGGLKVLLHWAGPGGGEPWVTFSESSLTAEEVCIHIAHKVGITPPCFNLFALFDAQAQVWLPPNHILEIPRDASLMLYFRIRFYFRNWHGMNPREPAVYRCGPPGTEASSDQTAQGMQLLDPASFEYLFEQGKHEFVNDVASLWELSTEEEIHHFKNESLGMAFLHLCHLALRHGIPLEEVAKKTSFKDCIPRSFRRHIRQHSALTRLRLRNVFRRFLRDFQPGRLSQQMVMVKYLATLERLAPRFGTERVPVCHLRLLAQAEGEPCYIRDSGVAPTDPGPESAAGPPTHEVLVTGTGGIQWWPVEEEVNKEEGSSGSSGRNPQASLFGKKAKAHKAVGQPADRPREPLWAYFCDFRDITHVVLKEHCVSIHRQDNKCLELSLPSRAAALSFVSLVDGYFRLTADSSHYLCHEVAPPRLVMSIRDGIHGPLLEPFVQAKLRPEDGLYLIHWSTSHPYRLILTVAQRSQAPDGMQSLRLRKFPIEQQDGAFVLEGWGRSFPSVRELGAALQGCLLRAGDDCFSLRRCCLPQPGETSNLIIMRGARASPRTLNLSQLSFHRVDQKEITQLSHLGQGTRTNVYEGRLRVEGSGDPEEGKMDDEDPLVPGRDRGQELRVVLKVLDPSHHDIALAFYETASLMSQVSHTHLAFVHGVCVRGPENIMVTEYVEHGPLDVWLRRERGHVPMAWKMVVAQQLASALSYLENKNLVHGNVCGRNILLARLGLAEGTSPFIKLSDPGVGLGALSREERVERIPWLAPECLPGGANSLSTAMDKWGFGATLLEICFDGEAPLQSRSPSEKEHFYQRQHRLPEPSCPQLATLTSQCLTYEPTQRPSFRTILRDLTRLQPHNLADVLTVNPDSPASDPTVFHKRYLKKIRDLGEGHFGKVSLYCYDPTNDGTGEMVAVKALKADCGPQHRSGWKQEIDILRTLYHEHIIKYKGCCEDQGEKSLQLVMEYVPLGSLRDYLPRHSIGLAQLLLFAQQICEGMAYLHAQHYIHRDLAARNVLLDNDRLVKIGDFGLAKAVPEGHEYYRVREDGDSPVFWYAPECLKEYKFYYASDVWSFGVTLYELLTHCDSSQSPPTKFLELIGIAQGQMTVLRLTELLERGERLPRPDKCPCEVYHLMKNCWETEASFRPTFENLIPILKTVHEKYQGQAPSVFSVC
Chain of JAK1 (P23458 whole entry, species assumed): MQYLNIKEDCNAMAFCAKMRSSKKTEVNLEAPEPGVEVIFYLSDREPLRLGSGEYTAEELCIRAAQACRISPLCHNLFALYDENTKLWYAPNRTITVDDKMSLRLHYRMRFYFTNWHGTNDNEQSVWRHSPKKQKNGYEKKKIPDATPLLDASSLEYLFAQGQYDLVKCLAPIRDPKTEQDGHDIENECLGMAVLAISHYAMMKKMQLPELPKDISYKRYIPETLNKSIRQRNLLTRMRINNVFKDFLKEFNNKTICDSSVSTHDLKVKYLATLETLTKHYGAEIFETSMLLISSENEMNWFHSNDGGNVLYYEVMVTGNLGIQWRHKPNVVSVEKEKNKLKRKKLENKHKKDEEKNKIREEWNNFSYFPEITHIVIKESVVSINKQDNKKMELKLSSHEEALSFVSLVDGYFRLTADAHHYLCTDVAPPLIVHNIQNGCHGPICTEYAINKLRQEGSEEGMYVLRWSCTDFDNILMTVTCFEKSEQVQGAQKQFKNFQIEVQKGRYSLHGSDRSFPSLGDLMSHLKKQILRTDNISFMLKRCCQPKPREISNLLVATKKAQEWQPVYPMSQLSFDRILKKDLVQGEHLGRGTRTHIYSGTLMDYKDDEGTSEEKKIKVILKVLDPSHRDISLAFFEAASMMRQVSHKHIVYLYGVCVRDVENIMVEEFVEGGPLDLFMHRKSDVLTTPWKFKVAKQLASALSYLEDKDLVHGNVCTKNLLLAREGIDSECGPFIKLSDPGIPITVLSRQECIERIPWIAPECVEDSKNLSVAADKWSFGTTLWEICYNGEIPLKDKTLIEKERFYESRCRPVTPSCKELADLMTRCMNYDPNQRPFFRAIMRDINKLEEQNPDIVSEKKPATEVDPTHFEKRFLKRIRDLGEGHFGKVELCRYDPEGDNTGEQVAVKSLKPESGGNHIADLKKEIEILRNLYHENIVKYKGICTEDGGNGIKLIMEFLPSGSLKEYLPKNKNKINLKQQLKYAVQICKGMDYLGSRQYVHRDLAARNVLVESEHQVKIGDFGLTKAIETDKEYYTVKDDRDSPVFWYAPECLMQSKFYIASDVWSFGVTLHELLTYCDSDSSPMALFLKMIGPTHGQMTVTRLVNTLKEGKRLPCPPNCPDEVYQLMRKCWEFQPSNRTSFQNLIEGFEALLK

Structure (SMILES)	IC50 (TYK2) [µM]	IC50 (JAK1) [µM]
COc1cnc(Nc2cc(C)ns2)nc1N1CC(CC#N)(N2CCCCC2)C1 [E24]	< 0.05	< 0.05
Cc1cc(Nc2ncc(C)c(N3CC(CC#N)(NCC4CN(C)C4)C3)n2)sn1 [E68a]	< 0.5	< 0.5
Cc1cc(Nc2ncc(C)c(N3CC(CC#N)(NC4CN(C)C4)C3)n2)sn1 [E52H]	< 0.1	< 0.1
Cc1cc(Nc2ncc(C)c(N3CC(CC#N)(N4CC5(CC5)C4)C3)n2)sn1 [E95a]	< 0.01	< 0.05
Cc1cc(Nc2ncc(C)c(N3CC(CC#N)(N4CCN5CCOC[C@@H]5C4)C3)n2)sn1 [E77a]	< 0.01	< 0.05
Cc1cc(Nc2ncc(C)c(N3CC(CC#N)(N4CCN(C(C)C)CC4)C3)n2)sn1 [E55]	< 0.05	< 0.05
Cc1cc(Nc2ncc(C)c(N3CC(CC#N)(N4CCC(F)CC4)C3)n2)sn1 [E17]	< 0.01	< 0.01
Cc1cc(Nc2ncc(C)c(N3CC(CC#N)(OC4CC5(CC5)C4)C3)n2)sn1 [E99a]	< 0.01	< 0.01
Cc1cc(Nc2ncc(C)c(N3CC(CC#N)(N4CCN(C)C5CC54)C3)n2)sn1 (stereo not drawn) [E94a]	< 0.01	< 0.01
Cc1cc(Nc2ncc(C)c(N3CC(CC#N)(N4CC5CC(C4)N5C)C3)n2)sn1 [E52F]	< 0.05	< 0.1
Cc1cc(Nc2ncc(C)c(N3CC(CC#N)(N4CC5OCCN(C)C5C4)C3)n2)sn1 (stereo not drawn) [E98a]	< 0.01	< 0.05
Cc1cc(Nc2ncc(C)c(N3CC(CC#N)(N4CCCC5(CC5)C4)C3)n2)sn1 [E21]	< 0.01	< 0.01
Cc1cc(Nc2ncc(C)c(N3CC(CCO)(N4CCCCC4)C3)n2)sn1 [E66a]	< 0.01	< 0.05
Cc1cc(Nc2ncc(C)c(N3CC(CC#N)(N4CCC4)C3)n2)sn1 [E12]	< 0.01	< 0.01
Cc1cc(Nc2ncc(C)c(N3CC(CC#N)(N4CCN5CCC[C@]5(C)C4)C3)n2)sn1 [E83a]	< 0.05	< 0.1
Cc1cc(Nc2ncc(C)c(N3CC(CC#N)(N4C5CCCC4C5)C3)n2)sn1 [E49]	< 0.02	< 0.03
CO[C@@H]1C[C@H]2CN(C3(CC#N)CN(c4nc(Nc5cc(C)ns5)ncc4C)C3)CCN2C1 [E72a]	< 0.01	< 0.01
Cc1cc(Nc2ncc(C)c(N3CC(CC#N)(N4CCN5C[C@@H](F)C[C@@H]5C4)C3)n2)sn1 [E70a]	< 0.01	< 0.02
Cc1cc(Nc2ncc(Cl)c(N3CC(CC#N)(N4CCCCC4)C3)n2)sn1 [E25]	< 0.01	< 0.01
Cc1cc(Nc2nccc(N3CC(CC#N)(N4CCN5CC6(CC6)C[C@H]5C4)C3)n2)sn1 [E82a]	< 0.02	< 0.05
Cc1cc(Nc2ncc(C)c(N3CC(CC#N)(N4CCCC5(COC5)C4)C3)n2)sn1 [E41]	< 0.01	< 0.01
Cc1cc(Nc2ncc(C)c(N3CC(CC#N)(N4CCC(CC(F)F)CC4)C3)n2)sn1 [E20]	< 0.01	< 0.01
Cc1cc(Nc2ncc(C)c(N3CC(CC#N)(N4CCN5CCOC[C@H]5C4)C3)n2)sn1 [E78a]	< 0.01	< 0.01
Cc1cc(Nc2ncc(C)c(N3CC(CC#N)(N4CCN5CC6(CC6)C[C@H]5C4)C3)n2)sn1 [E76a]	< 0.01	< 0.01
COC(=O)CC1(N2CCN3CCC[C@H]3C2)CN(c2nc(Nc3cc(C)ns3)ncc2C)C1 [E100a]	< 0.01	< 0.01
Cc1cc(Nc2ncc(C)c(N3CC(CC#N)(N4C[C@@H](C)N(C)[C@@H](C)C4)C3)n2)sn1 [E34]	< 0.01	< 0.05
Cc1cc(Nc2ncc(C)c(N3CC(CC#N)(N4CC(C)CC(C)C4)C3)n2)sn1 (stereo not drawn) [E16]	< 0.005	< 0.005
Cc1cc(Nc2ncc(C)c(N3CC(CC#N)(N4CCn5cncc5C4)C3)n2)sn1 [E93a]	< 0.01	< 0.01
Cc1cc(Nc2ncc(C)c(N3CC(CC#N)(N(C)C4CC4)C3)n2)sn1 [E13]	< 0.01	< 0.01

The remaining lines, values ahead:

IC50 (TYK2) [µM]	IC50 (JAK1) [µM]	Structure (SMILES)
< 0.05	< 0.05	Cc1cc(Nc2ncc(C)c(N3C4CC3CN(CC#N)C4)n2)sn1 [E117-V]
< 0.01	< 0.01	Cc1cnc(Nc2ccc3c(c2)CN(C)C3)nc1N1CC(CC#N)(N2CCC(F)CC2)C1 [E216-E]
< 0.02	< 0.05	Cc1cnc(Nc2ccc(C3COC3)cc2)nc1N1CC(CC#N)(N2CCN(C)CC2)C1 [E216-L]
< 0.05	< 0.02	Cc1cnc(Nc2cnn(C)c2)nc1N1CC(CC#N)(NCc2cccc(Cl)c2)C1 [E351]
< 1	< 5	Cc1cc(N(c2ncc(C)c(N3CC(CC#N)(NS(C)(=O)=O)C3)n2)S(C)(=O)=O)sn1 [E292]
< 0.03	< 0.12	Cc1cnc(Nc2ccc3c(c2)B(O)OC3)nc1N1CC(CC#N)(N2CCN3C[C@H](F)C[C@H]3C2)C1 [E216-O]
< 0.2	< 0.2	COCCN1CCN(C2(CC#N)CN(c3nc(Nc4cnn(CCOC)c4)ncc3C)C2)CC1 [E175-E]
< 0.01	< 0.02	Cc1cc(Nc2ncc(C)c(N3CC(CC#N)(NCc4ccc(F)cc4F)C3)n2)sn1 [E295, 2-(3-((2,4-difluorobenzyl)amino)-1-(5-methyl-2-((3-methylisothiazol-5-yl)amino)pyrimidin-4-yl)azetidin-3-yl)acetonitrile]
< 0.02	< 0.02	Cc1cc(Nc2ncc(C)c(N3CC(CC#N)(NC(=O)NCC(F)(F)F)C3)n2)sn1 [E293, 1-(3-(cyanomethyl)-1-(5-methyl-2-((3-methylisothiazol-5-yl)amino)pyrimidin-4-yl)azetidin-3-yl)-3-(2,2,2-trifluoroethyl)urea]
< 0.1	< 0.1	Cc1cnc(Nc2ccc(N3CCOCC3)nc2)nc1N1CC(CCC#N)C1 [E216-S]
< 0.1	< 0.15	Cc1cc(Nc2ncc(C)c(N3CC(N)(CC#N)C3)n2)sn1 [E289, 2-(3-amino-1-(5-methyl-2-((3-methylisothiazol-5-yl)amino)pyrimidin-4-yl)azetidin-3-yl)acetonitrile]
< 0.02	< 0.03	Cc1cc(Nc2ncc(C)c(N3CC(CC#N)(NC(=O)c4cc(F)cc(F)c4C)C3)n2)sn1 [E317]
< 0.01	< 0.01	Cc1cc(Nc2ncc(C)c(N3CC(CC#N)(N4CCN5CC(C)(C)C[C@H]5C4)C3)n2)sn1 [E111a]
< 0.03	< 0.02	Cc1cc(Nc2ncc(C)c(N3CC(CC#N)(NC(=O)c4cccnc4)C3)n2)sn1 [E303]
< 0.01	< 0.01	Cc1cc(Nc2ncc(C)c(N3CC(CC#N)(NCC4CCC(F)C4)C3)n2)sn1 (stereo not drawn) [E359]
< 0.03	< 0.05	Cc1cc(Nc2ncc(C)c(N3CC(CC#N)(NC(=O)c4cccc(F)c4C)C3)n2)sn1 [E318]

IC50 (TYK2) [µM]	IC50 (JAK1) [µM]	Structure (SMILES)
< 0.01	< 0.01	Cc1cnc(Nc2ccc3c(c2)CN(C)C3)nc1N1CC(CC#N)(N2CCC3(CC2)CC3(F)F)C1 [E113]
< 0.4	< 0.4	Cc1cc(Nc2ncc(C)c(N3CC(C)(CNC(=O)C4CN(C)C4)C3)n2)sn1 [E280]
< 0.01	< 0.025	Cc1cc(Nc2ncc(C)c(N3CC(CCC#N)C3)n2)sn1 [E117-T]
< 0.1	< 0.25	Cc1cnc(Nc2ccc(N3CCN(C)CC3)c(C(F)(F)F)c2)nc1N1CC2(C1)CC2(F)F [E115]
< 0.02	< 0.02	Cc1cnc(Nc2cnn(C)c2)nc1N1CC(CC#N)(N2CC3(C2)CC3(F)F)C1 [E161a]
< 0.12	< 0.12	COCCN1CCN(C2(CC#N)CN(c3nc(Nc4cnn(CCOC)c4)ncc3C)C2)CC1 [E175-D]
< 0.05	< 0.1	Cc1cnc(Nc2ccccc2)nc1N1CC(CC#N)(N2CCN(C)CC2)C1 [E216-V]
< 0.01	< 0.01	Cc1cnc(Nc2cnn(C)c2)nc1N1CC(CC#N)(N2CCN3CC(F)(F)C[C@H]3C2)C1 [E157a]
< 0.01	< 0.01	Cc1cnc(Nc2cnn(C)c2)nc1N1CC(CC#N)(N2CCN3C[C@H](F)C[C@H]3C2)C1 [E152a, 2-(3-((7R,8aS)-7-fluorohexahydropyrrolo[1,2-a]pyrazin-2(1H)-yl)-1-(5-methyl-2-((1-methyl-1H-pyrazol-4-yl)amino)pyrimidin-4-yl)azetidin-3-yl)acetonitrile]
< 0.05	< 0.1	Cc1cc(Nc2ncc(C)c(N3CC(N)(CC#N)C3)n2)sn1 [E117-AA]
< 0.01	< 0.01	Cc1cnc(Nc2ccc3c(c2)CN(C)C3)nc1N1CC(CC#N)(N2CCC(F)(F)CC2)C1 [E119-A]
< 1	< 5	CCS(=O)(=O)NC1(CC#N)CN(c2nc(N(c3cc(C)ns3)S(=O)(=O)CC)ncc2C)C1 [E302]
< 0.06	< 0.12	Cc1cnc(Nc2cnn(C)c2)nc1N1CC(CC#N)(N[C@H]2CC[C@H](NS(C)(=O)=O)C2)C1 [E306]
< 0.05	< 0.05	Cc1cnc(Nc2ccc(N3CCOCC3)cc2)nc1N1CC(C)(NC(=O)c2cccc(F)c2)C1 [E311]
< 0.01	< 0.01	Cc1cc(Nc2ncc(C)c(N3CC(CC#N)(NCc4cccc(Cl)c4)C3)n2)sn1 [E350]
